The values below come from US20220007644A1, “COMPOSITIONS COMPRISING PYRIDINE CARBOXYLATE HERBICIDES WITH PHOTOSYSTEM II AND OPTIONAL HPPD INHIBITOR HERBICIDES” (Corteva Agriscience LLC, priority 2018, published 2022).

Common to all, as to assay type: in vivo
For one data set, the system named is ZEAMX, Zea mays (maize). Kind of data set: Greenhouse postemergence phytotoxicity on crop (visual injury, 20-22 d). The conditions noted are these: Compound A 10 g/ha. The text has this: (§1) Greenhouse Trial Methodology—Evaluation of Postemergence Herbicidal Effect
(§2) Seeds of the desired test plant species were planted in a 90:10% v/v (volume/volume) mixture of PRO-MIX® BX (Premier Tech Horticulture, Quakertown, Pa., USA) and PROFILE®GREENS GRADE™ (Profile Products LLC, Buffalo Grove, Ill., USA) planting mixture, which typically has a pH of 5.2 to 6.2 and an organic matter content of at least 50 percent, in plastic pots with a surface area of 103.2 square centimeters (cm^2). In some aspects, to help ensure good germination and healthy plants, a fungicide treatment and/or other chemical or physical treatment was applied. The plants were grown for 7-36 days (d) in a greenhouse with an approximate 14-hour (h) photoperiod which was maintained at about 23° C. during the day and 22° C. during the night. Nutrients and water were added on a regular basis and supplemental lighting was provided with overhead metal halide 1000-Watt lamps as necessary. The plants were employed for testing when they reached the second or third true leaf stage.
(§3) Emulsifiable concentrates of each of each pyridine carboxylate herbicide (Compound A or Compound B) were prepared at 100 grams acid equivalent per liter (g ae/L). The emulsifiable concentrates also included a safener, cloquintocet-mexyl, at 120 grams active ingredient per liter (g ai/L), unless otherwise noted below. An aliquot of each emulsifiable concentrate was placed in a 25 mL glass vial and diluted with an aqueous mixture of 1.25% (v/v) ACTIROB® B esterified rapeseed oil (Bayer Crop Science, Research Triangle Park, N.C., USA) or MSO® Concentrate with LECI-TECH® methylated soybean oil (Loveland Products, Loveland, Colo., USA) to obtain concentrated stock solutions at the highest application rate for each herbicide, based upon a 12 milliliter (mL) application volume at a rate of 187 liters per hectare (L/ha). The concentrated stock solutions were further diluted with an aqueous mixture of 1.25% v/v ACTIROB® B or MSO® Concentrate with LECI-TECH® to obtain stock solutions at reduced application rates for each herbicide. Spray solutions of the herbicide combinations (Compound A or Compound B plus PS-II herbicide and optional HPPD herbicide) were prepared by adding weighed amounts or aliquots of the PS-II herbicide and optional HPPD herbicide to the stock solutions of Compound A or Compound B to form 12-mL spray solutions in two- or three-way combinations.
(§4) The spray solutions were applied to the plant material with an overhead Mandel track sprayer equipped with 8002E nozzles calibrated to deliver 187 L/ha over an application area of 0.503 square meters (m^2) at a spray height of 18 inches ([…] centimeters (cm)) above the average plant canopy. Control plants were sprayed in the same manner with the solvent blank. All pyridine carboxylate herbicide (component a) application rates are given as “g ae/ha” and all PS II inhibitor herbicide (component b) and HPPD inhibitor herbicide (component c) application rates are given as “g ai/ha.”
(§5) The treated plants and control plants were placed in a greenhouse as described above and watered by sub-irrigation to prevent wash-off of the test compounds. After 20-22 d, the condition of the test plants as compared with that of the control plants was determined visually and scored on a scale of 0 to 100 percent where 0 corresponds to no injury and 100 corresponds to complete kill.

Data set [1] has as its system HORVS, Hordeum vulgare (spring barley). The description is as above.
Excerpt: as §1, §2, §3, §4, §5

The test system of data set [2] is TRZAS, Triticum aestivum (spring wheat). Described as above.
Excerpt: as §1, §2, §3, §4, §5

Data set [3] relates to RUMOB, Rumex obtusifolius (broad-leaf dock). Kind of data set: Greenhouse postemergence herbicidal effect (visual injury, 20-22 d). The conditions noted are these: Compound A 10 g/ha.
Data set [4] deals with SETFA, Setaria faberi (giant foxtail). The data set is described as above. The note with it: SETFA, Compound A 10 g/ha. The method in brief: (§6)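 Seedlings reach 2nd/3rd true leaf in greenhouse; two- or three-way mixes (pyridine carboxylate with cloquintocet-mexyl, PS-II inhibitor, optional HPPD inhibitor) in 1.25% v/v oil adjuvant are sprayed overhead at 187 L/ha. Plants are sub-irrigated, then injury versus blank controls is rated 0–100% at 20-22 d.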

In data set [5] the test system is AMARE, Amaranthus retroflexus (pigweed). The description is as above. The method in brief:
as §6

Data set [6] concerns ALOMY, Alopecurus myosuroides (blackgrass). Described as above.
In data set [7] the test system is GLXMA, Glycine max (soybean). The data set is described as above. The note with it: for % visual injury, Obs: GLXMA, Compound A 10 g/ha.
For data set [8], the system named is HELAN, Helianthus annuus (common sunflower). The description is as above. The note with it: Compound A 10 g/ha, without cloquintocet-mexyl safener.
Data set [9] deals with POLCO, Polygonum convolvulus (wild buckwheat). Described as above. The note with it: POLCO, Compound A 10 g/ha.
The mark [10] stands for this setting: without cloquintocet-mexyl safener.

Where “and” joins values, the source holds several entries; their conditions need not be identical. Equal entries are not always repeated.

As to `N#CCOC(=O)c1nc(-c2ccc3cc[nH]c3c2F)c(F)c(N)c1Cl` [Compound A, cyanomethyl 4-amino-3-chloro-5-fluoro-6-(7-fluoro-1H-indol-6-yl)pyridine-2-carboxylate], the “% visual injury, Obs” value with ZEAMX, Zea mays (maize) is on record as 0%; in data set [2] (TRZAS, Compound A 10 g/ha) it was 3%; in [3], 13%; in data set [3] (setting [10]), 35%; in data set [4], 80%; in [4] (setting [10]), 0%. Besides, the “% visual injury, Obs” value in data set [5] (AMARE, Compound A 10 g/ha) is 88%; in data set [6] (ALOMY, Compound A 10 g/ha, without cloquintocet-mexyl safener), 0%; in data set [7] it was 90%; in [7] (setting [10]), 85%; in [8] it was 100%; in data set [9] it was 93%. In addition, the “% visual injury, Obs” value in data set [9] (setting [10]) is recorded as 78%. In addition, the visual injury in data set [1] (7.5 g ae/ha alone) was 0% and 8%; in data set [1] (10 g ae/ha alone), 0%; in data set [2] (7.5 g ae/ha alone) it was 0%; in data set [2] (10 g ae/ha alone), 0%; in [5] (7.5 g ae/ha alone), 78% and 70% and 90%; in data set [5] (10 g ae/ha alone) it was 73% and 90% and 85%. In addition, the visual injury in data set [6] (7.5 g ae/ha alone) was determined as 0%; in data set [6] (10 g ae/ha alone), 0%; in [7] (7.5 g ae/ha alone) it was 80%; in data set [7] (10 g ae/ha alone) it was 90%.
